Measurements from patent EP2608671B1, “COMPOUNDS FOR TREATMENT OF CANCER” (Gtx, Inc., priority 2010, dated 2012).
Read-outs that look alike come from different tables or passages of the source.

Assays:
[1] = test system: PPC-1; experiment: cells; conditions: Homo sapiens, PPC-1, 96 h, read-out: IC50 ± SEM (nM), PPC-1
[2] = test system: A375; experiment: SRB cell growth inhibition (cytotoxicity) assay; type: cell-based, human
[3] = test system: PC-3; experiment: cells
Source text: (§1) The only compounds which belong to the invention are the ones falling under the scope of formula (XI).
Cells were stained with SRB solution.
Cells. […] Cells between the third and fifth passages were used for experiments.
Cell growth inhibition studies. […] Cells were stained with sulphorhodamine B (SRB) solution.

[4] = test system: B16-F1; experiment: SRB cell growth inhibition (cytotoxicity) assay; type: cell-based, mouse
Source text: as §1

[5] = test system: prostate cancer cell lines (LNCaP, DU 145, PC-3, PPC-1); experiment: SRB cytotoxicity, prostate cancer cell panel (text summaries); type: cell-based; conditions: Homo sapiens, read-out: IC50 against prostate cancer cells
Source text: as §1

[6] = test system: DU 145; experiment: cells; conditions: Homo sapiens, DU-145, 96 h
[7] = test system: Bovine brain tubulin; experiment: In vitro tubulin polymerization assay; type: biochemical; conditions: 10 µM; for tubulin polymerization inhibited: 20 min incubation, compared to vehicle
Source text: (§2) In Vitro Tubulin Polymerization Assay.
as §2
In vitro microtubule polymerization assay.

[8] = test system: OVCAR-8; experiment: SRB growth inhibition, MDR model parent line; type: cell-based, human; conditions: Homo sapiens, OVCAR-8; Table 5A; read-out: IC50 (nM), OVCAR-8
[9] = test system: LNCaP; experiment: cells; conditions: Homo sapiens, 96 h, read-out: IC50 ± SEM (nM), LNCaP
[10] = test system: NCI/ADR-RES; experiment: SRB growth inhibition, P-gp over-expressing MDR line; type: cell-based, human; conditions: for IC50: Homo sapiens, NCI/ADR-RES, P-gp over-expressed MDR cell line, Table 5A, read-out: IC50 (nM), NCI/ADR-RES; for Resistance factor: NCI/ADR-RES vs OVCAR-8, 5760 min
[11] = test system: PPC-1
[12] = test system: PC-3 prostate tumor xenograft; experiment: In vivo antitumor efficacy, PC-3 xenograft; set-up: species or system mouse; conditions: PC-3, 50 mg/kg i.p.; control 680 mm^3
Source text: PC-3 and A375 tumor xenograft studies.
In vivo antitumor activity [tumor growth inhibition (% T/C), tumor growth delay (T-C value), and tumor cell kill (total log cell kill)].

[13] = test system: melanoma cell lines (A375, WM-164, B16-F1) and prostate cancer cell lines (LNCaP, DU 145, PC-3, PPC-1); experiment: SRB cytotoxicity, melanoma and prostate cell panel (averages); type: cell-based; conditions: Prostate cell; summary of Tables 2, 3, 21; read-out: IC50 range over tested melanoma and prostate cell lines
Source text: as §1

[14] = test system: WM-164; experiment: SRB cell growth inhibition (cytotoxicity) assay; type: cell-based, human
[15] = rat; for CL (mL/min/kg), systemic clearance / Vss (L/kg), volume of distribution: IV, […] (1h, 2r), 5 mg/kg (5Ha, 5Hc); for F (%), percent oral bioavailability: Table 4, 10 mg/kg
[16] = Homo sapiens, A-375, 96 h, read-out: IC50 ± SEM (nM), A375
[17] = Homo sapiens, PC-3, 96 h, read-out: IC50 ± SEM (nM), PC-3
[18] = Mus musculus, B16-F1, read-out: IC50 ± SEM (nM), B16-F1
[19] = summary over LNCaP, PC-3, DU-145, PPC-1
[20] = read-out: IC50 ± SEM (nM), DU 145

Molecule	IC50 [1]	IC50 [2, 16]	IC50 [3, 17]	IC50 [4, 18]	IC50 [6, 20]	IC50 [9]	Resistance factor [10]	further results
COc1cc(C(=O)c2csc(-c3ccccc3)c2)cc(OC)c1OC [1f, (5-Phenylthiophen-3-yl)(3,4,5-trimethoxyphenyl)methanone]	15 nM	15 ± 6 nM	12 nM	72 ± 15 nM	26 nM	–	–	IC50 [5, 19]: 12 to 35 nM
COc1cc(C(=O)c2csc(Nc3ccccc3)n2)cc(OC)c1OC [5a, (2-(Phenylamino)thiazol-4-yl)(3,4,5-trimethoxyphenyl)methanone]	54 ± 1 nM	45 ± 8 nM	57 ± 3 nM	65 ± 12 nM	70 ± 4 nM	51 ± 1 nM	0.6	tubulin polymerization inhibited [7]: 78%; IC50 [8]: 46 ± 6 nM; IC50 [10]: 27 nM
COc1cc(C(=O)c2cc(-c3ccccc3)on2)cc(OC)c1OC [1i, (5-Phenylisoxazol-3-yl)(3,4,5-trimethoxyphenyl)methanone]	> 10000 nM	> 30000 nM	> 10000 nM	> 30000 nM	> 10000 nM	> 10000 nM	–	IC50 ([5]; summary of Table 1): > 10000 nM
COc1cc(C(=O)c2ccc(-c3ccccc3)o2)cc(OC)c1OC [1d, (5-Phenylfuran-2-yl)(3,4,5-trimethoxyphenyl)methanone]	20 nM	27 ± 8 nM	21 nM	151 ± 24 nM	35 nM	23 nM	–	IC50 [5, 19]: 12 to 35 nM
COc1cc(C(=O)[C@H]2COC(c3ccccc3)=N2)cc(OC)c1OC [35a, (2R)-(2-Phenyl-4,5-dihydro-oxazol-4-yl)-(3,4,5-trimethoxy-phenyl)-methanone]	–	–	–	–	–	–	–	IC50 ([2]; SRB assay, 96 h, Tables 1, 2, 3, 5B, 5C, read-out: IC50 ± SEM (nM), A375): 500 ± 100 nM; IC50 ([4]; SRB assay, Tables 1, 2, 3, 5B, 5C, read-out: IC50 ± SEM (nM), B16-F1): 6500 ± 800 nM; IC50 ([11]; read-out: IC50 ± SEM (nM), PPC-1, SRB assay, 96 h, Tables 1, 2, 3, 5B, 5C): 1100 ± 100 nM
COc1cc(C(=O)c2csc(-c3ccc(O)cc3)n2)cc(OC)c1OC [2l, (2-(4-Hydroxyphenyl)thiazol-4-yl)(3,4,5-trimethoxyphenyl)methanone]	76 nM	100 nM	87 nM	110 nM	116 nM	103 nM	–	Tumor volume at day 21 [12]: 331 mm^3; inhibited tubulin polymerization ([7]; 15 min, Figure 28B): 55%; IC50 [13]: 76 to 116 nM
Cc1ccc(-c2nc(C(=O)c3ccc(F)cc3)c[nH]2)cc1 [12db, (4-fluorophenyl)(2-(p-tolyl)-1H-imidazol-4-yl)methanone]	34 ± 1 nM	–	56 ± 3 nM	–	–	45 ± 2 nM	–	inhibition of tubulin polymerization ([7]; 15 min, Figure 22): ~80%; IC50 ([2]; Homo sapiens, A-375, A375 melanoma cells, 48 h, SRB, read-out: IC50 ± SEM (nM) A375): 143 ± 13 nM; IC50 ([6]; read-out: IC50 ± SEM (nM) Du 145): 78 ± 5 nM
(1-(phenylsulfonyl)-2-(1-(phenylsulfonyl)-1H-indol-3-yl)-1H-imidazol-4-yl)(3,4,5-trimethoxyphenyl)methanone [17yaa]	–	–	–	–	–	–	–	IC50 ([2]; Table 6A, read-out: IC50 (nM), A375): 481 nM; IC50 ([3]; read-out: IC50 (nM), PC-3, Table 6A): 148 nM; IC50 ([4]; Table 6A, read-out: IC50 (nM), B16-F1): 539 nM; IC50 ([11]; read-out: IC50 (nM), PPC-1, Table 6A): 209 nM; IC50 ([14]; Table 6A, read-out: IC50 (nM), WM164): 468 nM
COc1cc(C(=O)c2cnc(-c3ccccc3)s2)cc(OC)c1OC [1e, (2-Phenylthiazol-5-yl)(3,4,5-trimethoxyphenyl)methanone]	> 10000 nM	13600 ± 3800 nM	> 10000 nM	12500 ± 5200 nM	> 10000 nM	> 10000 nM	–	IC50 ([5]; summary of Table 1): > 10000 nM
COc1cc(C(=O)c2csc(Nc3ccc(F)cc3)n2)cc(OC)c1OC.Cl [5Hc, (2-(p-Fluorophenylamino)thiazol-4-yl)(3,4,5-trimethoxyphenyl)methanone hydrochloride salt]	–	–	–	–	–	–	–	CL (mL/min/kg), systemic clearance [15]: 13 ± 2 mL/min/kg; Vss (L/kg), volume of distribution [15]: 1.4 ± 0.2 L/kg; increased exposure (AUC) by the oral route as compared to 1h ([15]; in vivo, po): more than 4.3 fold; F (%), percent oral bioavailability [15]: 21%
COc1cc(C(=NC#N)c2csc(-c3ccccc3)n2)cc(OC)c1OC [2j, N-((2-phenylthiazol-4-yl)(3,4,5-trimethoxyphenyl)methylene)cyanamide]	20 ± 1 nM	28 ± 12 nM	27 ± 1 nM	60 ± 21 nM	42 ± 2 nM	23 ± 2 nM	0.4	tubulin polymerization inhibited [7]: 64%; IC50 [13]: 20 to 60 nM; IC50 [8]: 34 ± 2 nM; IC50 [10]: 14 ± 1 nM; IC50 ([14]; Homo sapiens, WM164, SRB assay, 96 h, Table 2, read-out: IC50 ± SEM (nM), WM-164): 27 ± 13 nM
COc1cc(C(=O)c2cc(-c3ccccc3)ncn2)cc(OC)c1OC [1b, (6-Phenylpyrimidin-4-yl)(3,4,5-trimethoxyphenyl)methanone]	3700 nM	> 30000 nM	8300 nM	> 30000 nM	6900 nM	7000 nM	–	IC50 ([5]; summary of Table 1): 3700 to 8300 nM
COc1cc(C(=O)N2CCC(c3ccccc3)CC2)cc(OC)c1OC [1g, (4-Phenylpiperidin-1-yl)(3,4,5-trimethoxyphenyl)methanone]	> 20000 nM	> 30000 nM	> 20000 nM	> 30000 nM	> 20000 nM	> 20000 nM	–	IC50 ([5]; summary of Table 1): > 20000 nM
COc1cc(C(=O)c2csc(Nc3ccc(F)cc3)n2)cc(OC)c1OC [5c, (2-(p-Fluorophenylamino)thiazol-4-yl)(3,4,5-trimethoxyphenyl)methanone]	–	–	43 ± 1 nM	–	63 ± 1 nM	41 ± 1 nM	0.6	IC50 [8]: 44 ± 3 nM; IC50 [10]: 25 ± 6 nM
COc1cc(C(=O)c2cccc(-c3ccccc3)n2)cc(OC)c1OC [1c, (6-Phenylpyridin-2-yl)(3,4,5-trimethoxyphenyl)methanone]	–	–	–	–	–	–	0.4	IC50 [5, 19]: 12 to 35 nM
COc1cc(C(=O)c2csc(-c3ccc4[nH]ccc4c3)n2)cc(OC)c1OC [66a]	8 nM	8 ± 1 nM	7 nM	25 ± 13 nM	13 nM	10 nM	0.4	tubulin polymerization inhibited [7]: 81%; IC50 [13]: 7 to 25 nM; IC50 [8]: 10 ± 3 nM; IC50 [10]: 4 ± 2 nM
COc1cc(C(=O)c2c[nH]c(Nc3ccccc3)n2)cc(OC)c1OC [5e, (2-(Phenylamino)-1H-imidazol-4-yl)(3,4,5-trimethoxyphenyl)methanone]	> 1000 nM	–	> 1000 nM	–	> 1000 nM	> 1000 nM	–	IC50 [5, 19]: > 1000 nM
COc1cc(C(=O)c2csc(Nc3ccccc3)n2)cc(OC)c1OC.Cl [5Ha, (2-(Phenylamino)thiazol-4-yl)(3,4,5-trimethoxyphenyl)methanone hydrochloride salt]	–	–	–	–	–	–	–	CL (mL/min/kg), systemic clearance [15]: 17 ± 3 mL/min/kg; Vss (L/kg), volume of distribution [15]: 1.4 ± 0.2 L/kg; F (%), percent oral bioavailability [15]: 11%
COc1cc(C(=O)c2csc(Nc3ccc(C)cc3)n2)cc(OC)c1OC [5b, (2-(p-Tolylamino)thiazol-4-yl)(3,4,5-trimethoxyphenyl)methanone]	–	–	–	–	–	–	0.8	IC50 [8]: 28 nM; IC50 [10]: 21 nM
